Values after ≈ are worked out from the molar mass of the structure shown. Where a SMILES comes first, the peptide text is derived from it. The star is where a group is joined. βGlcNAc = CC(=O)N[C@@H]1[C@@H](O)[C@H](O)[C@@H](CO)O[C@H]1*; Palmitoyl = CCCCCCCCCCCCCCCC(=O)*; Myristoyl = CCCCCCCCCCCCCC(=O)*

In series [1] the test system is K. aerogenes ATCC 13048. It counts as cell-based, Klebsiella aerogenes. As to conditions: ATCC 13048, 18 h. On the procedure:
(§1) The Acinetobacter baumannii ATCC BAA-1605, Enterococcus faecium ATCC 700221, Klebsiella aerogenes ATCC 13048, Klebsiella pneumoniae ATCC 700603, Pseudomonas aeruginosa ATCC 9027, Staphylococcus aureus ATCC 33591, Candida glabrata ATCC 15126, strains were acquired from the American Type Culture Collection (ATCC). All the strains were stored at −80 °C in Roti-Store cryo vials and were transferred into fresh Mueller–Hinton broth (MHB, Becton Dickinson, Warsaw, Poland) for bacteria or RPMI-1640 (Sigma-Aldrich, Steinheim, Germany) for fungi before the tests and incubated for 24 h at 37 °C. Then, the cultures were seeded on the Mueller–Hinton agar (BioMaxima, Lublin, Poland) or Sabouraud dextrose agar (SDA, BioMaxima, Lublin, Poland) plates, respectively, and incubated as just mentioned. These agar cultures were used for further microbiological assays. Cell densities for all assays were adjusted spectrophotometrically (Multiskan GO Microplate Spectrophotometer, Thermo Fisher Scientific, Vantaa, Finland) at 600 and 530 nm for bacteria and fungi, respectively.
(§2) The MICs were determined using a broth microdilution method according to the Clinical and Laboratory Standard Institute guidelines. For this purpose, initial inoculums of bacteria (5 × 10^5 CFU/mL) in MHB and yeasts (2 × 10^3 CFU/mL) in RPMI-1640 with 2% D-glucose were exposed to the ranging concentration of lipopeptides (1–512 μg/mL) and incubated at 37 °C for 18 h and 24 h, respectively. The experiments were conducted on 96-well microtiter polystyrene plates (Kartell, Italy). The growth was assessed visually after incubation and the MIC was assumed as the lowest peptide concentration at which a noticeable growth of microorganisms was inhibited. All experiments were conducted in triplicate.

Series [2] has as its system P. aeruginosa ATCC 9027. It counts as cell-based, Pseudomonas aeruginosa. To be noted: ATCC 9027, 18 h. The protocol: as §1, §2
Series [3] in a line: Determination of peptide hydrophobicity with RP-HPLC (adjusted retention time). It is filed as physicochemical. As to conditions: RP-HPLC as measure of hydrophobicity; Waters X-Bridge Shield RP-18 3.0 × 100 mm, 3.5 μm; linear 20–80% acetonitrile in water over 30 min, 0.1% TFA; 0.5 mL/min; 25.0 °C; peptide 1 g/L in water (0.1% TFA); UV 214 nm; triplicate. On the procedure:
To determine peptide hydrophobicity, a Waters Alliance e2695 system with a Waters 2998 PDA Detector was used. All analyses were carried out on a Waters X-Bridge Shield RP-18 column (3.0 × 100 mm, 3.5 μm particle size, 130 Å pore size). The peptides were dissolved in water (0.1% TFA, v/v) up to a concentration of 1 g/L. UV detection at 214 nm was used, and samples (10 μL) were eluted with a linear 20–80% acetonitrile gradient in deionized water over 30 min at 25.0 ± 0.1 °C. The mobile phase flow rate was 0.5 mL/min. Both eluents contained 0.1% (v/v) of TFA. Each peptide sample was analyzed in triplicate. Maximum standard deviation and coefficient of variation were 0.046 and 0.23%, respectively.
After synthesis and purification, all the products were analyzed with MS and HPLC to confirm purity and identity of the compounds. […] The chromatographic analyses were performed with RP-HPLC; retention time refers to hydrophobicity of the lipopeptide.

Series [4] relates to human red blood cells (RBCs). Nature of the series: Hemolysis assay. It is filed as cell-based. As to conditions: human RBCs 4% (v/v) in PBS, 60 min, 37 °C, absorbance 540 nm, 1–512 µg/mL; triplicate. On the procedure: The hemolysis assay was conducted using a procedure described previously. For this purpose, fresh human red blood cells (RBCs) with EDTA anticoagulant were washed three times with phosphate-buffer saline (PBS) using centrifugation at 800× g for 10 min and resuspended in PBS. Then, the stock solution of RBCs was added to serial dilution of peptides on 96-well polystyrene plates to reach a final volume of 100 µL with 4% concentration of erythrocytes (v/v) over the concentration range of 1–512 µg/mL of the tested compounds. The control wells for the 0% and 100% hemolysis consisted of RBCs suspended in PBS and 1% of Triton X–100, respectively. Subsequently, the plates were incubated for 60 min at 37 °C and then centrifuged at 800× g for 10 min at 4 °C (Sorvall ST 16R Centrifuge, Thermo Scientific, Osterode am Harz, Germany). After centrifugation, the supernatant was carefully […] to new microtiter plates and the release of hemoglobin was monitored through absorbance measurements at 540 nm (Multiskan™ GO Microplate Spectrophotometer, Thermo Scientific). All experiments were conducted in triplicate.
The lipopeptides were tested against human erythrocytes in order to evaluate their hemolytic activity. Moreover, selectivity indexes (SI) were calculated by dividing the HC50 by MIC. […] In some cases, glycosylation led to suppressed toxicity, e.g., a comparison of C14 peptides analogs: 1–3 and 10–12. On the other hand, an increase in toxicity of C18 analogs (7–9 vs. 16–18) was found for glycosylated USCLs. For this reason, SI was calculated to provide a correlation between antimicrobial activity and toxicity. […] Among gUSCLs: 10 and 11 with C14 fatty acid and 16–18 should be highlighted owing to their high selectivity against E. fecium and C. glabrata.

As a reminder, the MIC is the smallest concentration in the dilution series that meets the test's criterion for growth inhibition. Lower therefore signals greater potency. For `CCCCCCCCCCCCCC(=O)N[C@@H](CCCNC(=N)N)C(=O)N[C@@H](CO)C(=O)N[C@@H](CCCNC(=N)N)C(N)=O` [Peptide 2, C14-RSR-NH2] (Myristoyl-Arg-Ser-Arg-NH2), the MIC in series [1] stood at 512 µg/mL (≈ 817 µM); in series [2], 64 µg/mL (≈ 102 µM). In addition, the “Adjusted Retention Time” value in series [3] worked out at 15.96 min. For the same compound, in series [4], the “HC50 (hemolytic activity)” value is listed as 186.64 ± 2.14 µg/mL.

In the case of `CCCCCCCCCCCCCC(=O)N[C@@H](CCCNC(=N)N)C(=O)N[C@@H](CCCNC(=N)N)C(=O)N[C@@H](CO)C(N)=O` [Peptide 3, C14-RRS-NH2] (Myristoyl-Arg-Arg-Ser-NH2), the MIC was 512 µg/mL (≈ 817 µM) in series [1] and 64 µg/mL (≈ 102 µM) in series [2]. Also, in series [3], the “Adjusted Retention Time” value was 15.91 min. The “HC50 (hemolytic activity)” value in series [4] was determined as 227.01 ± 5.69 µg/mL.

As for `CCCCCCCCCCCCCCCC(=O)N[C@@H](CO)C(=O)N[C@@H](CCCNC(=N)N)C(=O)N[C@@H](CCCNC(=N)N)C(N)=O` [Peptide 4, C16-SRR-NH2] (Palmitoyl-Ser-Arg-Arg-NH2), the MIC in series [1] and in series [2] was 16 µg/mL (≈ 24.4 µM) in each case. Also, the “Adjusted Retention Time” value in series [3] stood at 20.55 min. Besides, in series [4], the “HC50 (hemolytic activity)” value is reported as 75.46 ± 0.73 µg/mL.

With `CCCCCCCCCCCCCCCC(=O)N[C@@H](CCCNC(=N)N)C(=O)N[C@@H](CO)C(=O)N[C@@H](CCCNC(=N)N)C(N)=O` [Peptide 5, C16-RSR-NH2] (Palmitoyl-Arg-Ser-Arg-NH2), the minimum inhibitory concentration (MIC) is given as 32 µg/mL (≈ 48.9 µM) in series [1] and 64 µg/mL (≈ 97.7 µM) in series [2]. Besides, the “Adjusted Retention Time” value in series [3] turned out to be 19.93 min. The “HC50 (hemolytic activity)” value in series [4] is recorded as 82.21 ± 2.07 µg/mL.

In the case of `CCCCCCCCCCCCCCCC(=O)N[C@@H](CCCNC(=N)N)C(=O)N[C@@H](CCCNC(=N)N)C(=O)N[C@@H](CO)C(N)=O` [Peptide 6, C16-RRS-NH2] (Palmitoyl-Arg-Arg-Ser-NH2), the MIC was 64 µg/mL (≈ 97.7 µM) in series [1] and 16 µg/mL (≈ 24.4 µM) in series [2]. Also, the “Adjusted Retention Time” value in series [3] was found to be 19.89 min. The “HC50 (hemolytic activity)” value in series [4] amounted to 75.95 ± 1.57 µg/mL.

Consider `CCCCCCCCCCCCCC(=O)N[C@@H](CO[C@@H]1O[C@H](CO)[C@@H](O)[C@H](O)[C@H]1NC(C)=O)C(=O)N[C@@H](CCCNC(=N)N)C(=O)N[C@@H](CCCNC(=N)N)C(N)=O` [Peptide 10, C14-S(GlcNAc)RR-NH2] (Myristoyl-Ser(βGlcNAc)-Arg-Arg-NH2), for which the MIC in series [1] is on record as over 512 µg/mL; in series [2], 256 µg/mL (≈ 308 µM). Further, in series [3], the “Adjusted Retention Time” value is 14.47 min. Moreover, the “HC50 (hemolytic activity)” value in series [4] is given as over 512 µg/mL.

As to `CCCCCCCCCCCCCC(=O)N[C@@H](CCCNC(=N)N)C(=O)N[C@@H](CO[C@@H]1O[C@H](CO)[C@@H](O)[C@H](O)[C@H]1NC(C)=O)C(=O)N[C@@H](CCCNC(=N)N)C(N)=O` [Peptide 11, C14-RS(GlcNAc)R-NH2] (Myristoyl-Arg-Ser(βGlcNAc)-Arg-NH2), the MIC in series [1] was over 512 µg/mL; in series [2], 128 µg/mL (≈ 154 µM). Also, the “Adjusted Retention Time” value in series [3] is recorded as 14.82 min. Further, in series [4], the “HC50 (hemolytic activity)” value is 364.17 ± 105.10 µg/mL.

Consider `CCCCCCCCCCCCCC(=O)N[C@@H](CCCNC(=N)N)C(=O)N[C@@H](CCCNC(=N)N)C(=O)N[C@@H](CO[C@@H]1O[C@H](CO)[C@@H](O)[C@H](O)[C@H]1NC(C)=O)C(N)=O` [Peptide 12, C14-RRS(GlcNAc)-NH2] (Myristoyl-Arg-Arg-Ser(βGlcNAc)-NH2), for which the MIC is listed as over 512 µg/mL in series [1] and 256 µg/mL (≈ 308 µM) in series [2]. For the same compound, the “Adjusted Retention Time” value in series [3] came out at 15.01 min. The “HC50 (hemolytic activity)” value in series [4] stood at 345.72 ± 51.94 µg/mL.

In the case of `CCCCCCCCCCCCCCCC(=O)N[C@@H](CO[C@@H]1O[C@H](CO)[C@@H](O)[C@H](O)[C@H]1NC(C)=O)C(=O)N[C@@H](CCCNC(=N)N)C(=O)N[C@@H](CCCNC(=N)N)C(N)=O` [Peptide 13, C16-S(GlcNAc)RR-NH2] (Palmitoyl-Ser(βGlcNAc)-Arg-Arg-NH2), the minimal inhibitory concentration (MIC) in series [1] is 512 µg/mL (≈ 597 µM); in series [2], 32 µg/mL (≈ 37.3 µM). Besides, the “Adjusted Retention Time” value in series [3] came to 18.26 min. Also, in series [4], the “HC50 (hemolytic activity)” value turned out to be 95.39 ± 2.40 µg/mL.

The values are drawn from paper PMC9855884, “Glycosylated Lipopeptides—Synthesis and Evaluation of Antimicrobial Activity and Cytotoxicity” (Biomolecules, 2023).
